Measurements: patent US20250026716A1, “SYNTHESIS PROCESS OF FATTY ACYL TAURINE SALT” (ZHANGJIAGANG GREAT CHEMICAL CO., LTD., priority 2021, published 2025)

What was measured:
[1] = Foaming performance test (foam volume, mixing method); assay type: physicochemical; details: 2 g of sample, 150 mg/kg hard water to 500 mL, stirring 30 s at 1000 rpm
Protocol: For further comparison, foaming performance tests are conducted on products of Examples 12-13 and Comparative Examples 16-17, and the test results are shown in Table 12.

[2] = test system: chicken embryo chorioallantoic membrane; test: Irritancy (stimulus) test, chicken embryo chorioallantoic membrane method

| Foam volume [1] | Compound | Bleeding time [2] | IS value [2] |
| --- | --- | --- | --- |
| 860 mL | CCCCCCCCCCCC(=O)NCCS(=O)(=O)O.[Na] [Comparative Example 16, sodium lauroyl taurine, reference compound] |  |  |
|  | CCCCCCCCCCCC(=O)NCCS(=O)(=O)O.[Na] [Example 2, sodium lauroyl taurine] | 41.5 | 4.33 |
| 1240 mL | CCCCCCCCCCCC(=O)NCCS(=O)(=O)O.[Na] [Example 12, sodium lauroyl taurine] |  |  |
